We go through seven compounds from publication PMC12193833, “Toxicity Assessment and Antifungal Potential of Copper(II) and Silver(I) Complexes with 1,10-Phenanthroline-5,6-dione Against Drug-Resistant Clinical Isolates of Cryptococcus gattii and Cryptococcus neoformans” (Journal of Fungi, 2025).

≈ marks a conversion by molar mass, not a printed value. Bounds are passed on as bounds.

The subject of data set [1] is Galleria mellonella larvae. As to the kind of experiment: In vivo acute toxicity, single treatment. To be noted: single inoculation; for Larval survival: 125–1000 µM, 10 µL/larva, 37 °C. The method, then: In this set of experiments, G. mellonella larvae weighing approximately 0.2–0.3 g and displaying clear, uniform coloration were used. The larvae were inoculated (10 µL/larva) using an insulin syringe (BD Ultra-Fine, Franklin Lakes, NJ, USA) at the last left proleg. […] We also assessed their coloration through visual analysis as an indicator of stress levels. Throughout the experiments, the larvae were maintained at 37 °C [19, 42]. Two distinct treatment protocols were designed to evaluate the effects of the test compounds on larval survivability, as detailed below.
For the acute toxicity analysis, the test compounds were administered to the larvae in a single inoculation at concentrations ranging from 1000 to 125 μM. Each group consisted of 10 larvae, while the control group received only sterile PBS with 4% DMSO. […] The SI was calculated using the following equation: SI = G. mellonella CC50/Cryptococcus MIC.

For data set [2], the system named is C. neoformans clinical isolates. Nature of the data set: MIC/MFC of test compounds, microdilution. It counts as cell-based, Cryptococcus neoformans. From the text: (§1) Six clinical isolates belonging to the Cryptococcus genus were obtained from patients who attended the Instituto Nacional de Infectologia Evandro Chagas (INI), Fundação Oswaldo Cruz (FIOCRUZ), and were kindly provided by Dr. Rodrigo Almeida-Paes (INI-FIOCRUZ). To comply with ethical standards and institutional agreements between UFRJ and FIOCRUZ, patient data were not disclosed. In this sense, the C. neoformans isolates were designated CFP00213 (213), CFP00223 (223), and CFP00350 (350), while the C. gattii isolates were labeled CFP00023 (23), CFP00025 (25), and CFP00027 (27). Before each experiment, an aliquot of the culture was transferred from Sabouraud dextrose agar (2% glucose, 1% peptone, and 0.5% yeast extract) to RPMI 1640 medium (Sigma-Aldrich, St. Louis, MO, USA), pH 7.2, buffered with 0.165 M MOPS (Sigma-Aldrich, St. Louis, MO, USA). RPMI medium induces the expression of capsular polysaccharides, the primary virulence factor of Cryptococcus cells. The cultures were incubated at 37 °C for 48 h to promote cell proliferation, stimulate metabolic activation, and enhance capsular development. Yeast cell counts were determined using a Neubauer chamber.
(§2) Following MIC determination, the MFC was assessed by inoculating 10 µL from wells showing no visible fungal growth onto Sabouraud dextrose agar. […] To further support and strengthen the evidence of the anti-Cryptococcus activity of the Cu-phendione and Ag-phendione complexes, we additionally performed MIC/MFC assays using well-characterized standard reference strains: ATCC 28957, H99, T1444 (all C. neoformans), and R265 (C. gattii).

The test system of data set [3] is C. gattii clinical isolates. As to the kind of experiment: MIC/MFC of test compounds, microdilution. It counts as cell-based, Cryptococcus gattii.
Excerpt: as §1, §2

Data set [4] has as its system C. neoformans clinical isolates. Nature of the data set: Susceptibility to clinically available antifungals, CLSI M27-A3 microdilution. To be noted: Cryptococcus neoformans. The data set is classed as cell-based.
Excerpt: as §1
(§3) The susceptibility profile was evaluated using the microdilution method in RPMI 1640 medium buffered with 0.165 M MOPS, following the M27-A3 protocol for yeasts established by the Clinical and Laboratory Standards Institute (CLSI). […] Each fungal isolate was classified as either wild-type or non-wild-type for each antifungal based on the epidemiological cutoff values provided in CLSI M59 ED3, 2020 [32].

Data set [5] has as its system C. gattii clinical isolates. The description is as above. It counts as cell-based. Conditions: Cryptococcus gattii.
Excerpt: as §1, §3

Another data set has as its system G. mellonella. Conditions: cited from earlier work.
[6] abbreviates: C. neoformans isolate 213, read-out: MIC.
The mark [7] stands for this setting: C. neoformans isolate 223, read-out: MIC.
The mark [8] stands for this setting: C. neoformans isolate 350, read-out: MIC.
[9] abbreviates: all C. neoformans clinical isolates.
The mark [10] stands for this setting: C. gattii isolate 23, read-out: MIC.
The mark [11] stands for this setting: C. gattii isolate 25, read-out: MIC.
Where [12] appears, read: C. gattii isolate 27, read-out: MIC.
Where [13] appears, read: all C. gattii clinical isolates.

In the case of `[Ag+].[O-][Cl+3]([O-])([O-])[O-]` [AgClO4, silver perchlorate], the Larval mortality in data set [1] (250 µM) was determined as 20%; in data set [1] (500 µM) it was 20%; in data set [1] (1000 µM), 50%. The MFC in data set [2] (C. neoformans isolate 213) is given as more than 100 µM; in data set [2] (C. neoformans isolate 223) it was more than 100 µM; in data set [2] (C. neoformans isolate 350) it was more than 100 µM; in data set [2] (setting [9]) it was more than 100 µM; in data set [3] (C. gattii isolate 23), 12.5 µM; in data set [3] (C. gattii isolate 25), 12.5 µM. Moreover, the MFC in data set [3] (C. gattii isolate 27) and in data set [3] (setting [13]) was 12.5 µM each time. In addition, the MIC in data set [2] (setting [6]) is given as 1.56 µM; in data set [2] (setting [7]), 1.56 µM; in data set [2] (setting [8]) it was 1.56 µM; in data set [2] (all C. neoformans clinical isolates, read-out: MIC), 1.56 µM; in data set [3] (setting [10]), 1.56 µM; in data set [3] (setting [11]), 1.56 µM. The MIC in data set [3] (setting [12]) came out at 1.56 µM; in data set [3] (all C. gattii clinical isolates, read-out: MIC), 1.56 µM.
The compound `O.O.O.O.O.O.[Cu+2].[O-][Cl+3]([O-])([O-])[O-].[O-][Cl+3]([O-])([O-])[O-]` [Cu(ClO4)2.6H2O, copper perchlorate] displayed a Larval survival in data set [1] of 100%. The MIC in data set [2] (C. neoformans isolate 213) is given as >100/ND µM; in data set [2] (C. neoformans isolate 223) it was >100/ND µM; in data set [2] (C. neoformans isolate 350), >100/ND µM; in data set [2] (setting [9]), “no antifungal activity”; in data set [3] (C. gattii isolate 23), >100/ND µM; in data set [3] (C. gattii isolate 25) it was >100/ND µM. Further, the MIC in data set [3] (C. gattii isolate 27) was >100/ND µM; in data set [3] (setting [13]), “no antifungal activity”.
For the compound `Nc1[nH]c(=O)ncc1F` [Flucytosine, flucytosine], the MIC in data set [4] (24 h, C. neoformans isolate 213, 37 °C) amounted to 4 µg/mL; in data set [4] (24 h, C. neoformans isolate 223, 37 °C) it was 64 µg/mL; in data set [4] (24 h, C. neoformans isolate 350, 37 °C) it was 16 µg/mL; in data set [4] (C. neoformans isolate 213, value in brackets), 30 µM; in data set [4] (C. neoformans isolate 223, value in brackets) it was 496 µM; in data set [4] (C. neoformans isolate 350, value in brackets), 124 µM. Also, the MIC in data set [5] (24 h, C. gattii isolate 23, 37 °C) was found to be 0.125 µg/mL; in data set [5] (24 h, C. gattii isolate 25, 37 °C), 4 µg/mL; in data set [5] (24 h, C. gattii isolate 27, 37 °C), 4 µg/mL; in data set [5] (C. gattii isolate 23, value in brackets), 0.96 µM; in data set [5] (C. gattii isolate 25, value in brackets) it was 30 µM; in data set [5] (C. gattii isolate 27, value in brackets), 30 µM.
As for `O=C1C(=O)c2cccnc2-c2ncccc21` [Phendione, 1,10-Phenanthroline-5,6-dione], the Larval survival in data set [1] worked out at 100%. Besides, the MIC in data set [2] (setting [6]) was 12.5 µM (≈ 2.63 µg/mL); in data set [2] (setting [7]), 12.5 µM (≈ 2.63 µg/mL); in data set [2] (setting [8]), 12.5 µM (≈ 2.63 µg/mL); in data set [2] (Cryptococcus neoformans, all C. neoformans clinical isolates, read-out: MIC) it was 12.5 µM (≈ 2.63 µg/mL); in data set [3] (setting [10]), 12.5 µM (≈ 2.63 µg/mL); in data set [3] (setting [11]), 12.5 µM (≈ 2.63 µg/mL). Moreover, the MIC turned out to be 12.5 µM (≈ 2.63 µg/mL) in data set [3] (setting [12]) and 12.5 µM (≈ 2.63 µg/mL) in data set [3] (Cryptococcus gattii, all C. gattii clinical isolates, read-out: MIC). The MFC in data set [2] (Cryptococcus neoformans, C. neoformans isolate 213) was more than 100 µM; in data set [2] (Cryptococcus neoformans, C. neoformans isolate 223) it was 100 µM (≈ 21 µg/mL); in data set [2] (Cryptococcus neoformans, C. neoformans isolate 350), 100 µM (≈ 21 µg/mL); in data set [2] (Cryptococcus neoformans, all C. neoformans clinical isolates), not below 100 µM; in data set [3] (Cryptococcus gattii, C. gattii isolate 23) it was more than 100 µM; in data set [3] (Cryptococcus gattii, C. gattii isolate 25), 100 µM (≈ 21 µg/mL). In addition, the MFC was more than 100 µM in data set [3] (Cryptococcus gattii, C. gattii isolate 27) and not below 100 µM in data set [3] (Cryptococcus gattii, all C. gattii clinical isolates).
In the case of `O.O.O.O.O=C([O-])c1cccc(C(=O)[O-])c1.O=C([O-])c1cccc(C(=O)[O-])c1.[Mn+2].[Mn+2].c1cnc2c(c1)ccc1cccnc12.c1cnc2c(c1)ccc1cccnc12.c1cnc2c(c1)ccc1cccnc12` [[Mn2(isophthalic acid)2(1,10-phenanthroline)3]·4H2O], the “RNA levels encoding transferrin and inducible metalloproteinase inhibitor protein (IMPI)” value with G. mellonella is “increased”.
Take `O.O.O.O.O.O=C([O-])c1ccc(C(=O)[O-])cc1.[Mn+2].c1cnc2c(c1)ccc1cccnc12.c1cnc2c(c1)ccc1cccnc12` [[Mn(terephthalic acid)(1,10-phenanthroline)2]·5H2O]: in the data set with G. mellonella, the Gallerimycin expression entry is recorded as “upregulated”; the “RNA levels encoding transferrin and inducible metalloproteinase inhibitor protein (IMPI)” value is recorded as “increased”.
Turning to “{[Mn(3,6,9-trioxoundecanedioic acid)(1,10-phenanthroline)2]·3H2O·EtOH}n”, the “RNA levels encoding transferrin and inducible metalloproteinase inhibitor protein (IMPI)” value with G. mellonella is “increased”.
